Laboratory results: US20230416329A1, “A PEPTIDE WITH DISULFIDE BONDS AND INHIBITORY ACTIVITY AGAINST SERINE PROTEASES, DERIVED HYBRID PEPTIDES THEREOF, AND USES THEREOF” (INSTITUTE OF MATERIA MEDICA , CHINESE ACADEMY OF MEDICAL …, priority 2020, published 2023)
Where “and” joins values, the source holds several entries; their conditions need not be identical. Equal entries are not always repeated.

System: mouse ear swelling
Experiment: Croton oil mouse ear swelling, IL-17A inhibitory peptide administered via duodenum
Type: in vivo
Conditions: peptides 300 mg/kg, dexamethasone 1 mg/mL, 10 mL/kg
Method: Enteric coating technology can be used to achieve oral administration of targeted small intestine drugs. Considering factors such as gastric emptying and physical barriers in the stomach, in order to accurately detect the feasibility of direct intestinal administration of targeted IL-17A inhibitory peptide, duodenal administration is designed. Eight mice in each group are subjected to surgical exposure of the duodenum under ether anesthesia, and the drug is injected according to different grouping schemes.
The model control group (Con) is given PEG400 (50%, w/v)/physiological saline. The administration group was given different polypeptide samples (300 mg/kg), while the positive control group was given dexamethasone (1 mg/mL, 10 mL/kg), and then the muscular layer and cortex were sutured. Ear swelling model was established 6 minutes after suture. All mice in each group were coated with 10 μL croton oil on both sides of the right ear. After 4 hours of inflammation, the mice in each group were killed for cervical dislocation. After that, ear pieces were punched in the symmetrical parts of the left and right ears with a hole punch and weighed. Their mass was recorded. The swelling degree and swelling rate were calculated:
Swelling rate=((right ear mass−left ear mass)/left ear mass)*100%

SMILES: C[C@@H]1C[C@H]2[C@@H]3CCC4=CC(=O)C=C[C@]4(C)[C@@]3(F)[C@@H](O)C[C@]2(C)[C@@]1(O)C(=O)CO [dexamethasone]
- Swelling (%) (4 hours after croton oil): 58.11 ± 18.81 % and 65.67 ± 15.52 %
- Swelling inhibitory (%) (vs model control): 39.57% and 28.84%
